In brackets after ≈: the same amount, converted by molar mass.

Consider 20 compounds from patent publication US11512079B2, “Heterocycle substituted pyridine derivative antifungal agents” (Amplyx Pharmaceuticals, Inc., priority 2017, dated 2022).

Type in all cases: cell-based
One assay concerns Candida albicans 90028. The assay is described as follows: In vitro antifungal assay (Example IX), microdilution broth, MIC. To be noted: minimum inhibitory concentration (≥50% inhibition), 35° C., 40-48 h, RPMI1640. The procedure: Measurement of antifungal activity: Antifungal activity of the compounds was evaluated in a microdilution broth assay as per Clinical and Laboratory Standard Institute methodology for yeast (for Candida and Cryptococcus) (1) and molds (for Aspergillus and Rhizomucor) (2). Candida albicans 90028, Aspergillus fumigatus MYA3626, Rhizomucor pusillus 46342 and Cryptococcus neoformans H99 strains were obtained from American Type Culture Collection (ATCC).
Preparation of Fungal Suspension. C. albicans 90028 and C. neoformans H99 strains were streaked from frozen stocks at −80° C. onto Sabouraud Dextrose Agar (SDA) plates. These were allowed to grow for 24 h (C. albicans) and 48 h (C. neoformans) at 35° C. before using them in the assay. 5-6 individual colonies were picked and diluted into sterile water to obtain a fungal suspension. The cell density of the suspension was determined and the culture diluted with RPMI1640 medium to obtain a fungal suspension of 2.5×10^3 cells/mL. The suspension was used in the MIC measurement as described below.
Preparation of Compound Stocks and Intermediate Dilutions: The compounds were weighed and DMSO was added to prepare a 10 mg/mL stock. The solutions were mixed by vortexing and sonication at 37° C. for 5-10 mins. The resulting solutions were sterile filtered using a PTFE filter, and aliquoted (12 μL or as needed) and stored at −20° C. Intermediate compound dilutions were prepared in sterile polypropylene tubes in 100% DMSO. The compound stock solution was first diluted in DMSO to obtain a concentration of […] to 0.19 μg/mL.
MIC/MEC Measurement: 99 μL 1 of the fungal suspension in RPMI1640 prepared as above was added to each well of a 96-well round bottom assay plate. 1 μL of the intermediate compound dilutions (200-0.19 μg/mL) were added to wells of the plate. This led to a 100-fold dilution of the intermediate dilutions resulting in a final compound concentration of 2-0.0019 μg/mL in the plate. 1 μL of DMSO was added to “No drug” control wells. The solutions were mixed by shaking on a plate shaker for 10 mins and plates incubated at 35° C. for 40-48 h (C. albicans, A. fumigatus, R. pusillus) and 72 h (Cryptococcus). […] This was validated by thorough mixing and reading at 600 nm on a microplate reader. The minimum concentration that led to shortening of hyphae as compared to hyphal growth in DMSO control wells was determined as the minimum effective concentration (MEC) for A. fumigatus and R. pusillus (as read for echinocandins). The use of the MIC and MEC endpoints against yeasts and molds, respectively has been described by Pfaller M A, Duncanson F, Messer S A, Moet G J, Jones R N, Castanheira M. Antimicrob Agents Chemother. 2011. 55(11):5155-8. In vitro activity of a novel broad-spectrum antifungal, E1210, tested against Aspergillus spp. determined by CLSI and EUCAST broth microdilution methods. Results are shown in Table 2, and the letters indicate the following ranges in μg/mL: […]
(In general: Dilution methods test growth across graded concentrations, often in twofold steps.)

Assay [1] concerns Rhizomucor pusillus 46342. The assay is described as follows: In vitro antifungal assay (Example IX), microdilution broth, MEC. To be noted: minimum effective concentration (shortening of hyphae), 35° C., 40-48 h, RPMI1640. The procedure:
(§1) Measurement of antifungal activity: […] Candida albicans 90028, Aspergillus fumigatus MYA3626, Rhizomucor pusillus 46342 and Cryptococcus neoformans […] strains were obtained from American Type Culture Collection (ATCC). […] (A. fumigatus) and 35° C. (R. pusillus). Water containing 1% Tween was directly added to the agar plate and gently agitated to wet and remove the Aspergillus conidia. For R. pusillus, water was added to the surface and gently massaged to wet and remove the spores. For both species, the conidia or spores and mycelial fragments were collected, followed by removal of mycelium, conidiophores and large clumps of conidia/spores. The resulting spore suspension was counted and diluted into RPMI1640 medium to adjust to a final suspension of 1-2×10^4 spores/mL. The suspension was used in the MEC measurement as described below. […] The compounds were weighed and DMSO was added to prepare a 10 mg/mL stock. The solutions were mixed by vortexing and sonication at 37° C. for 5-10 mins. The resulting solutions were sterile filtered using a PTFE filter, and aliquoted (12 μL or as needed) and stored at -20° C. Intermediate compound dilutions were prepared in sterile polypropylene tubes in 100% DMSO. […] This was validated by thorough mixing and reading at 600 nm on a microplate reader. The minimum concentration that led to shortening of hyphae as compared to hyphal growth in DMSO control wells was determined as the minimum effective concentration (MEC) for A. fumigatus and R. pusillus (as read for echinocandins). The use of the MIC and MEC endpoints against yeasts and molds, respectively has been described by Pfaller M A, Duncanson F, Messer S A, Moet G J, Jones […]. Antimicrob Agents Chemother. 2011. 55(11):5155-8. In vitro activity of a novel broad-spectrum antifungal, […], tested against Aspergillus spp. determined by CLSI and EUCAST broth microdilution methods. Results are shown in Table 2, and the letters indicate the following ranges in μg/mL: […]

For assay [2], the system named is Aspergillus fumigatus MYA3626. The description is as above. To be noted: minimum effective concentration (shortening of hyphae), 35° C., 40-48 h, RPMI1640. The procedure:
as §1

The term MIC denotes the lowest concentration that inhibits growth of the organism. High values mean a less susceptible organism, low ones a more susceptible organism. What is called minimal effective concentration is the smallest amount tested that counted as effective. High values mean a need for much substance, low ones an effect from little substance. Regarding `Nc1ncccc1-c1cc(Cc2ccc(CCl)cc2)no1` [B, 3-(3-(4-(chloromethyl)benzyl)isoxazol-5-yl)pyridin-2-amine], in the assay with Candida albicans 90028, the MIC is greater than 1 µg/mL. For the same compound, the minimal effective concentration in assay [1] was greater than 1 µg/mL; in assay [2] it was 0.1 to 1 µg/mL.
`CCCc1cccc(OCc2ccc(Cc3cc(-c4cccnc4N)on3)cc2)c1` [compound 103, 3-(3-(4-((3-propylphenoxy)methyl)benzyl)isoxazol-5-yl)pyridin-2-amine] had a minimal inhibitory concentration (MIC) against Candida albicans 90028 of 0.1 to 1 µg/mL (≈ 0.25 to 2.5 µM). Further, the minimal effective concentration in assay [1] is greater than 1 µg/mL; in assay [2], 0.1 to 1 µg/mL.
In the assay on Candida albicans 90028, `Nc1ncccc1-c1cc(Cc2ccc(NCc3ccc(F)cc3)nc2)no1` [Example 153, 5-((5-(2-aminopyridin-3-yl)isoxazol-3-yl)methyl)-N-(4-fluorobenzyl)pyridin-2-amine] returned an MIC of 0.1 to 1 µg/mL (≈ 0.266 to 2.66 µM). The minimal effective concentration in assay [1] is greater than 1 µg/mL; in assay [2], 0.01 to 0.1 µg/mL.
For the compound `Nc1ncccc1-c1cc(Cc2ccc(CNc3cc(F)cc(F)c3)cc2)no1` [Example 167, 3-(3-(4-(((3,5-difluorophenyl)amino)methyl)benzyl)isoxazol-5-yl)pyridin-2-amine], in the assay with Candida albicans 90028, the MIC was 0.1 to 1 µg/mL (≈ 0.255 to 2.55 µM). Also, the results for the minimal effective concentration in assay [1] and in assay [2] were 0.1 to 1 µg/mL and 0.01 to 0.1 µg/mL, respectively.
`Nc1ncccc1-c1cc(Cc2ccc(O)cc2)no1` [C, 4-((5-(2-aminopyridin-3-yl)isoxazol-3-yl)methyl)phenol]: in the assay on Candida albicans 90028, the MIC is greater than 1 µg/mL. The minimal effective concentration in assay [1] was greater than 1 µg/mL; in assay [2], 0.1 to 1 µg/mL.
With `Cn1ccc(Cc2ccc(Cc3cc(-c4cccnc4N)on3)cc2)n1` [Example 152, 3-(3-(4-((1-methyl-1H-pyrazol-3-yl)methyl)benzyl)isoxazol-5-yl)pyridin-2-amine], the MIC against Candida albicans 90028 fell in the range of 0.01 to 0.1 µg/mL (≈ 0.029 to 0.29 µM). The results for the minimal effective concentration in assay [1] and in assay [2] were greater than 1 µg/mL and 0.01 to 0.1 µg/mL, respectively.
`Nc1ncccc1-c1cc(Cc2ccc(Cn3ccccc3=O)cc2)no1` [compound 126, 1-(4-((5-(2-aminopyridin-3-yl)isoxazol-3-yl)methyl)benzyl)pyridin-2(1H)-one] came in with a minimal inhibitory concentration (MIC) against Candida albicans 90028 greater than 1 µg/mL. Besides, the minimal effective concentration in assay [1] and in assay [2] was greater than 1 µg/mL throughout.
In the assay on Candida albicans 90028, `Nc1ncccc1-c1cc(Cc2ccc(CNc3ncns3)cc2)no1` [compound 6, N-(4-((5-(2-aminopyridin-3-yl)isoxazol-3-yl)methyl)benzyl)-1,2,4-thiadiazol-5-amine] showed an MIC greater than 1 µg/mL. Also, the minimal effective concentration in assay [1] and in assay [2] was greater than 1 µg/mL throughout.
With `Nc1ncccc1-c1cc(Cc2ccc(Oc3c[n+]([O-])ccn3)cc2)no1` [compound 119, 3-(4-((5-(2-aminopyridin-3-yl)isoxazol-3-yl)methyl)phenoxy)pyrazine 1-oxide], the minimal inhibitory concentration (MIC) in the assay with Candida albicans 90028 is greater than 1 µg/mL. Further, the minimal effective concentration in assay [1] and in assay [2] was greater than 1 µg/mL throughout.
As for `N#Cc1cnn(Cc2ccc(Cc3cc(-c4cccnc4N)on3)cc2)c1` [compound 3, 1-(4-((5-(2-aminopyridin-3-yl)isoxazol-3-yl)methyl)benzyl)-1H-pyrazole-4-carbonitrile], the MIC in the assay on Candida albicans 90028 was 0.1 to 1 µg/mL (≈ 0.281 to 2.81 µM). The figures for the minimal effective concentration in assay [1] and in assay [2] were greater than 1 µg/mL and 0.1 to 1 µg/mL, respectively.
In turn, `c1ccc(Sc2ccc(Cn3cc(-c4cccnc4)cn3)cn2)cc1` [compound 66, 2-(phenylthio)-5-((4-(pyridin-3-yl)-1H-pyrazol-1-yl)methyl)pyridine] gave an MIC against Candida albicans 90028 of 0.1 to 1 µg/mL (≈ 0.29 to 2.9 µM). Besides, the values for the minimal effective concentration in assay [1] and in assay [2] were greater than 1 µg/mL and 0.1 to 1 µg/mL, respectively.
Compound `Nc1ncccc1-c1cc(Cc2cccc(OCc3ccccc3F)n2)no1` [compound 90, 3-(3-((6-((2-fluorobenzyl)oxy)pyridin-2-yl)methyl)isoxazol-5-yl)pyridin-2-amine] displayed an MIC against Candida albicans 90028 of 0.1 to 1 µg/mL (≈ 0.266 to 2.66 µM). Besides, the minimal effective concentration in assay [1] and in assay [2] was greater than 1 µg/mL throughout.
Compound `N#Cc1ccc(COc2ccc(Cc3cc(-c4cccnc4N)on3)cc2)cc1` [compound 113, 4-((4-((5-(2-aminopyridin-3-yl)isoxazol-3-yl)methyl)phenoxy)methyl)benzonitrile] showed a minimum inhibitory concentration (MIC) with Candida albicans 90028 greater than 1 µg/mL. In addition, the minimal effective concentration in assay [1] is greater than 1 µg/mL; in assay [2], 0.1 to 1 µg/mL.
Regarding `Nc1ncccc1-c1cc(Cc2ccc(Cc3cccc(C(F)(F)F)n3)cc2)no1` [Example 151, 3-(3-(4-((6-(trifluoromethyl)pyridin-2-yl)methyl)benzyl)isoxazol-5-yl)pyridin-2-amine], in the assay with Candida albicans 90028, the MIC lay in the range of 0.1 to 1 µg/mL (≈ 0.244 to 2.44 µM). The minimal effective concentration in assay [1] and in assay [2] was 0.1 to 1 µg/mL in each case.
In the case of `Nc1ncccc1-c1cc(Cc2ccc(OCc3ccccc3C(F)(F)F)nc2)no1` [compound 128, 3-(3-((6-((2-(trifluoromethyl)benzyl)oxy)pyridin-3-yl)methyl)isoxazol-5-yl)pyridin-2-amine], in the assay on Candida albicans 90028, the minimal inhibitory concentration (MIC) is greater than 1 µg/mL. Moreover, the minimal effective concentration is greater than 1 µg/mL in assay [1] and 0.1 to 1 µg/mL in assay [2].
`Nc1ncccc1-c1cnn(Cc2ccc(Oc3ccccc3)nc2)c1` [compound 63, 3-(1-((6-phenoxypyridin-3-yl)methyl)-1H-pyrazol-4-yl)pyridin-2-amine]: the minimal inhibitory concentration (MIC) against Candida albicans 90028 is 0.1 to 1 µg/mL (≈ 0.291 to 2.91 µM). The minimal effective concentration in assay [1] is greater than 1 µg/mL.
`Nc1ncccc1-c1cc(Cc2ccc(CNc3nc(=O)[nH]cc3F)cc2)no1` [compound 232, 4-((4-((5-(2-aminopyridin-3-yl)isoxazol-3-yl)methyl)benzyl)amino)-5-fluoropyrimidin-2(1H)-one]: the minimal inhibitory concentration (MIC) against Candida albicans 90028 was greater than 1 µg/mL. Further, the minimal effective concentration in assay [2] was greater than 1 µg/mL.
Consider `c1ccc(Oc2ccc(Cn3cc(-c4cccnc4)cn3)cn2)cc1` [compound 64, 2-phenoxy-5-((4-(pyridin-3-yl)-1H-pyrazol-1-yl)methyl)pyridine], for which the minimal inhibitory concentration (MIC) with Candida albicans 90028 fell in the range of 0.1 to 1 µg/mL (≈ 0.305 to 3.05 µM). The compound also yielded a minimal effective concentration in assay [1] greater than 1 µg/mL.
In turn, `Nc1ncccc1-c1cc(Cc2ccc(OCc3cc(Cl)ccn3)nc2)no1` [compound 92, 3-(3-((6-((4-chloropyridin-2-yl)methoxy)pyridin-3-yl)methyl)isoxazol-5-yl)pyridin-2-amine] yielded a minimal effective concentration in assay [1] of 0.1 to 1 µg/mL.
Take `Nc1ncccc1-c1cc(Cc2ccc(OCCc3cccc(F)c3)nc2)no1` [compound 91, 3-(3-((6-(3-fluorophenethoxy)pyridin-3-yl)methyl)isoxazol-5-yl)pyridin-2-amine]: the minimal effective concentration in assay [1] is greater than 1 µg/mL.
